From patent US10125123B2, “Small molecule IRE1-α inhibitors” (Cornell University, priority 2016, dated 2018)

Biological target: T1, IRE1α (Homo sapiens, UniProt O75460)
T1 construct: purchased SignalChem
Assay: In vitro FRET assay (XBP1 RNA probe cleavage by IRE1α)
Settings: biochemical FRET assay, 2 nM IRE1α
Procedure: In vitro FRET assay was performed to evaluate the ability of select compounds to inhibit IRE1, the results of which are summarized in the following table.
To perform the in vitro FRET assay, 1× complete assay buffer (CAB; […], 50 mM sodium citrate pH 7.15, 1 mM magnesium acetate, 0.02% Tween 20) was used to dilute SignalChem IRE1α in protein to a final concentration of 2 nM. Selected compounds were serially diluted with DMSO in a non-binding black 384-well plate for a total of 15 μl in each well. 2 μl of the serially diluted compound or DMSO control were then added to new wells containing 98 μl of 1×CAB, for a total volume of 100 μl, 10 μl of which were then transferred to wells of a new plate. 5 μl of the diluted IRE1α was then added to each well. 5 μl of a […] XBP1 RNA probe was then added to each well. Fluorescence was then read over 30 minutes in kinetic mode (485/515 nm). Two RNA probes were used, XBP1 wildtype (CAUGUCCGCAGCACAUG; SEQ ID NO: 1) which is able to be spliced by active IRE1α or XBP1 mutant (CAUGUCCCCAGCACAUG; SEQ ID NO: 2) which is unable to be spliced. Each probe contained a 5′ 6-FAM modification and a 3′ IOWA Black FQ modification. […]

T1 sequence (O75460 19-977): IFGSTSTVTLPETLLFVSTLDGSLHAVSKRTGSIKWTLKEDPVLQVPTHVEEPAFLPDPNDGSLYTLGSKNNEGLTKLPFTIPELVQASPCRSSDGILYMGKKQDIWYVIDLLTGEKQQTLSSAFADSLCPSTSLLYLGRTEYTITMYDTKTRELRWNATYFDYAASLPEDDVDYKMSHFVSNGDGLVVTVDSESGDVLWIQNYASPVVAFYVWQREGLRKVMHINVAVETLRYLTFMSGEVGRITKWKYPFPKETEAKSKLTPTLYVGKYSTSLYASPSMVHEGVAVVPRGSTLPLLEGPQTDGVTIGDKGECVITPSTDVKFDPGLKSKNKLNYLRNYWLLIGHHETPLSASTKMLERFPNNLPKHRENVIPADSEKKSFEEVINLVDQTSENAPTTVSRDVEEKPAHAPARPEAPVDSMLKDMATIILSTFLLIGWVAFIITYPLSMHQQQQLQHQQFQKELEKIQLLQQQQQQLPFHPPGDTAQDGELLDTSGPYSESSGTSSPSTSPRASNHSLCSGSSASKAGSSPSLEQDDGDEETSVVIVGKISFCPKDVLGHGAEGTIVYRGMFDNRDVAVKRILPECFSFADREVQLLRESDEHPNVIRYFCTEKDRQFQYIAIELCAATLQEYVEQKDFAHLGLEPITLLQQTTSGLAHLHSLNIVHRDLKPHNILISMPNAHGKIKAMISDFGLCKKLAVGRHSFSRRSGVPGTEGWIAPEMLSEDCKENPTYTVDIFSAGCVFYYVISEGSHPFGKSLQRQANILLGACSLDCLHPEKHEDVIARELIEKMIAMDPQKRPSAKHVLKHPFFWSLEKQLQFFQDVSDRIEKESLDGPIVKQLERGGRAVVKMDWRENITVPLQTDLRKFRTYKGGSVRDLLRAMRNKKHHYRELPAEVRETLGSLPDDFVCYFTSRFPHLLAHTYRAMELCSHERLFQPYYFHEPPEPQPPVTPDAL

EC50 [µM]	Compound
> 100	O=C(Nc1ccc(CN2CCNCC2)c(C(F)(F)F)c1)Nc1ccc2oc(-c3cccnc3)nc2c1 [Compound 13, 1-(4-(piperazin-1-ylmethyl)-3-(trifluoromethyl)phenyl)-3-(2-(pyridin-3-yl)benzo[d]oxazol-5-yl)urea]
50 to 100	O=C(Nc1ccc(CN2CCN(Cc3ccccc3)CC2)c(C(F)(F)F)c1)Nc1ccc2oc(-c3cccnc3)nc2c1 [Compound 14, 1-(4-((4-benzylpiperazin-1-yl)methyl)-3-(trifluoromethyl)phenyl)-3-(2-(pyridin-3-yl)benzo[d]oxazol-5-yl)urea]
> 100	CN1CCN(Cc2ccc(NC(=O)Nc3ccc4oc(-c5cccnc5)nc4c3)cc2C(F)(F)F)CC1 [Compound 15, 1-(4-((4-methylpiperazin-1-yl)methyl)-3-(trifluoromethyl)phenyl)-3-(2-(pyridin-3-yl)benzo[d]oxazol-5-yl)urea]
≤ 5	CN1CCN(Cc2ccc(NC(=O)Nc3ccc4oc(-c5cnn6ccccc56)nc4c3)cc2C(F)(F)F)CC1 [Compound 16, 1-(4-((4-methylpiperazin-1-yl)methyl)-3-(trifluoromethyl)phenyl)-3-(2-(pyrazolo[1,5-a]pyridin-3-yl)benzo[d]oxazol-5-yl)urea]
> 100	Cc1cc2oc(-c3cnn4ccccc34)nc2cc1NC(=O)Nc1ccc(CN2CCN(C)CC2)c(C(F)(F)F)c1 [Compound 17, 1-(6-methyl-2-(pyrazolo[1,5-a]pyridin-3-yl)benzo[d]oxazol-5-yl)-3-(4-((4-methylpiperazin-1-yl)methyl)-3-(trifluoromethyl)phenyl)urea]
> 100	Cc1c(NC(=O)Nc2ccc(CN3CCN(C)CC3)c(C(F)(F)F)c2)ccc2oc(-c3cnn4ccccc34)nc12 [Compound 18, 1-(4-methyl-2-(pyrazolo[1,5-a]pyridin-3-yl)benzo[d]oxazol-5 yl)-3-(4-((4-methylpiperazin-1-yl)methyl)-3-(trifluoromethyl)phenyl)urea]
> 100	CN1CCN(CCc2cccc(NC(=O)Nc3cc(-c4ccc5ccncc5c4)n(C)n3)c2)CC1 [Compound 19, 1-(5-(isoquinolin-7-yl)-1-methyl-1H-pyrazol-3-yl)-3-(3-(2-(4-methylpiperazin-1-yl)ethyl)phenyl)urea]
> 100	Cn1nc(NC(=O)c2cccc(-n3cccn3)c2)cc1-c1ccc2ccncc2c1 [Compound 20, N-(5-(isoquinolin-7-yl)-1-methyl-1H-pyrazol-3-yl)-3-(1H-pyrazol-1-yl)benzamide]
50 to 100	CN1CCN(Cc2ccc(NC(=O)Nc3cc(-c4ccc5ccncc5c4)n(C)n3)c(-c3cnn(C)c3)c2)CC1 [Compound 21, 1-(5-(isoquinolin-7-yl)-1-methyl-1H-pyrazol-3-yl)-3-(2-(1-methyl-1H-pyrazol-4-yl)-4-((4-methylpiperazin-1-yl)methyl)phenyl)urea]
≤ 5	CN1CCN(Cc2ccc(NC(=O)Nc3cc(-c4ccc5ncncc5c4)n(C)n3)cc2C(F)(F)F)CC1 [Compound 22, 1-(1-methyl-5-(quinazolin-6-yl)-1H-pyrazo1-3-yl)-3-(4-((4-methylpiperazin-1-yl)methyl)-3-(trifluoromethyl)phenyl)urea]
5 to 50	CN1CCN(Cc2ccc(NC(=O)Nc3cc(-c4ccc5ccc(O)nc5c4)n(C)n3)cc2C(F)(F)F)CC1 [Compound 23, 1-(5-(2-hydroxyquinolin-7-yl)-1-methyl-1H-pyrazol-3-y1)-3-(4-((4-methylpiperazin-1-yl)methyl)-3-(trifluoromethyl)phenyl)urea]
≤ 5	CN1CCN(Cc2ccc(NC(=O)Nc3cc(-c4ccc5ccncc5c4)n(C)n3)cc2C(F)(F)F)CC1 [Compound 24, 1-(5-(isoquinolin-7-yl)-1-methyl-1H-pyrazol-3-yl)-3-(4-((4-methylpiperazin-1-yl)methyl)-3-(trifluoromethyl)phenyl)urea]
5 to 50	CN1CCN(Cc2ccc(NC(=O)Nc3cc(-c4cnc5ccccc5c4)n(C)n3)cc2C(F)(F)F)CC1 [Compound 25, 1-(1-methyl-5-(quinolin-3-yl)-1H-pyrazol-3-yl)-3-(4-((4-methylpiperazin-1-yl)methyl)-3-(trifluoromethyl)phenyl)urea]
≤ 5	CN1CCN(Cc2ccc(NC(=O)Nc3cc(-c4ccc5cc(N)ncc5c4)n(C)n3)cc2C(F)(F)F)CC1 [Compound 26, 1-(5-(3-aminoisoquinolin-7-yl)-1-methyl-1H-pyrazol-3-yl)-3-(4-((4-methylpiperazin-1-yl)methyl)-3-(trifluoromethyl)phenyl)urea]
≤ 5	CN1CCN(Cc2ccc(NC(=O)Nc3cc(-c4ccc5nc(N)nc(O)c5c4)n(C)n3)cc2C(F)(F)F)CC1 [Compound 27, 1-(5-(2-amino-4-hydroxyquinazolin-6-yl)-1-methyl-1H-pyrazol-3-yl)-3-(4-((4-methylpiperazin-1-yl)methyl)-3-(trifluoromethyl)phenyl)urea]
≤ 5	CN1CCN(Cc2ccc(NC(=O)Nc3cc(-c4ccc5ncnc(N)c5c4)n(C)n3)cc2C(F)(F)F)CC1 [Compound 28, 1-(5-(4-aminoquinazolin-6-yl)-1-methyl-1H-pyrazol-3-yl)-3-(4-((4-methylpiperazin-1-yl)methyl)-3-(trifluoromethyl)phenyl)urea]
≤ 5	CN1CCN(Cc2ccc(NC(=O)Nc3cc(-c4ccc5nc(N)nc(N)c5c4)n(C)n3)cc2C(F)(F)F)CC1 [Compound 29, 1-(5-(2,4-diaminoquinazolin-6-yl)-1-methyl-1H-pyrazol-3-yl)-3-(4-((4-methylpiperazin-1-yl)methyl)-3-(trifluoromethyl)phenyl)urea]

The next lines start with the compound.

Compound	EC50 [µM]
CN1CCN(Cc2ccc(NC(=O)Nc3nn(C)c4cc(-c5cccnc5)ccc34)cc2C(F)(F)F)CC1 [Compound 1, 1-(1-methyl-6-(pyridin-3-yl)-1H-indazol-3-yl)-3-(4-((4-methylpiperazin-1-yl)methyl)-3-(trifluoromethyl)phenyl)urea]	≤ 5
CN1CCN(Cc2ccc(NC(=O)Nc3cc(-c4ccc5cnoc5c4)n(C)n3)cc2C(F)(F)F)CC1 [Compound 2, 1-(5-(benzo[d]isoxazol-6-yl)-1-methyl-1H-pyrazol-3-yl)-3-(4-((4-methylpiperazin-1-yl)methyl)-3-(trifluoromethyl)phenyl)urea]	5 to 50
CN1CCN(Cc2ccc(NC(=O)Nc3cc(-c4ccc5oncc5c4)n(C)n3)cc2C(F)(F)F)CC1 [Compound 3, 1-(5-(benzo[d]isoxazol-5-yl)-1-methyl-1H-pyrazol-3-yl)-3-(4-((4-methylpiperazin-1-yl)methyl)-3-(trifluoromethyl)phenyl)urea]	> 100
CN1CCN(Cc2ccc(NC(=O)Nc3cc(-c4ccn5ccnc5c4)n(C)n3)cc2C(F)(F)F)CC1 [Compound 4, 1-(5-(imidazo[1,2-a]pyridin-7-yl)-1-methyl-1H-pyrazol-3-yl)-3-(4-((4-methylpiperazin-1-yl)methyl)-3-(trifluoromethyl)phenyl)urea]	> 100
CN1CCN(Cc2ccc(NC(=O)Nc3cc(-c4cccn5ccnc45)n(C)n3)cc2C(F)(F)F)CC1 [Compound 5]	> 100
CN1CCN(Cc2ccc(NC(=O)Nc3cc(-c4cccc5nccnc45)n(C)n3)cc2C(F)(F)F)CC1 [Compound 6]	> 100
CN1CCN(Cc2ccc(NC(=O)Nc3cc(-c4cccnc4)[nH]n3)cc2C(F)(F)F)CC1 [Compound 7, 1-(4-((4-methylpiperazin-1-yl)methyl)-3-(trifluoromethyl)phenyl)-3-(5-(pyridin-3-yl)-1H-pyrazol-3-yl)urea]	5 to 50
CN1CCN(Cc2ccc(NC(=O)Nc3cc(-c4ccc5nc(C(F)F)[nH]c(=O)c5c4)n(C)n3)cc2C(F)(F)F)CC1 [Compound 8, 1-(5-(2-(difluoromethyl)-4-oxo-3,4-dihydroquinazolin-6-yl)-1-methyl-1H-pyrazol-3-yl)-3-(4-((4-methylpiperazin-1-yl)methyl)-3-(trifluoromethyl)phenyl)urea]	≤ 5
CN1CCN(Cc2ccc(NC(=O)Nc3nn(C)c4cc(-c5cnc(N)nc5)ccc34)cc2C(F)(F)F)CC1 [Compound 9, 1-(6-(2-aminopyrimidin-5-yl)-1-methyl-1H-indazol-3-yl)-3-(4-((4-methylpiperazin-1-yl)methyl)-3-(trifluoromethyl)phenyl)urea]	≤ 5
CN1CCN(Cc2ccc(NC(=O)Nc3nn(C)c4cc(-c5cnc(N)cn5)ccc34)cc2C(F)(F)F)CC1 [Compound 10, 1-(6-(5-aminopyrazin-2-yl)-1-methyl-1H-indazol-3-yl)-3-(4-((4-methylpiperazin-1-yl)methyl)-3-(trifluoromethyl)phenyl)urea]	5 to 50
CN1CCN(Cc2ccc(NC(=O)Nc3n[nH]c4cc(-c5cnc(N)nc5)ccc34)cc2C(F)(F)F)CC1 [Compound 11, 1-(6-(2-aminopyrimidin-5-yl)-1H indazol-3-yl)-3-(4-((4-methylpiperazin-1-yl)methyl)-3-(trifluoromethyl)phenyl)urea]	5 to 50
CN1CCN(Cc2ccc(NC(=O)Nc3cc(-c4ccnc5c4ccn5C)n(C)n3)cc2C(F)(F)F)CC1 [Compound 12, 1-(1-methyl-5-(1-methyl-1H-pyrrolo[2,3-b]pyridin-4-yl)-1H-pyrazol-3-yl)-3-(4-((4-methylpiperazin-1-yl)methyl)-3-(trifluoromethyl)phenyl)urea]	5 to 50
